Experimental data as given in article PMC8199036, “Improved Tumor-Targeting with Peptidomimetic Analogs of Minigastrin ^177Lu-PP-F11N” (Cancers, 2021).
Starred links: 1 amine or outer side, 2 acyl side, 3 side chain; linkers in the order of their positions; H or OH if unused. Non-standard residues stand in square brackets, D forms with d. Residues, ends and D or L forms follow the SMILES beside them. *: point of attachment. DOTA = O=C(O)CN1CCN(CC(=O)O)CCN(CC(=O)*)CCN(CC(=O)O)CC1; X1 = C[C@@H](C(=O)[*:2])n1cc([C@@H](CCC(=O)O)N[*:1])nn1; X2 = O=C(Cn1cc([C@H](Cc2ccc(O)cc2)N[*:1])nn1)[*:2]; Nle = CCCC[C@H](N)C(=O)O

Key:
A431-CCK2R cells = experiment: cell binding and internalization; type: cell-based; conditions: 177Lu-labeled, % of applied radioactivity
CCK2R = biological target: T1, CCK2R (Homo sapiens, UniProt P32239); experiment: competition binding assay (receptor displacement of 177Lu-PP-F11N); conditions: read-out: IC50 (95% CI); 175Lu-labeled; displacement of 177Lu-PP-F11N (2 nM) on A431-CCK2R cells
T1 construct: expressed in transfected cells; host or cells: A431-CCK2R cells
T1 sequence (P32239 1-447): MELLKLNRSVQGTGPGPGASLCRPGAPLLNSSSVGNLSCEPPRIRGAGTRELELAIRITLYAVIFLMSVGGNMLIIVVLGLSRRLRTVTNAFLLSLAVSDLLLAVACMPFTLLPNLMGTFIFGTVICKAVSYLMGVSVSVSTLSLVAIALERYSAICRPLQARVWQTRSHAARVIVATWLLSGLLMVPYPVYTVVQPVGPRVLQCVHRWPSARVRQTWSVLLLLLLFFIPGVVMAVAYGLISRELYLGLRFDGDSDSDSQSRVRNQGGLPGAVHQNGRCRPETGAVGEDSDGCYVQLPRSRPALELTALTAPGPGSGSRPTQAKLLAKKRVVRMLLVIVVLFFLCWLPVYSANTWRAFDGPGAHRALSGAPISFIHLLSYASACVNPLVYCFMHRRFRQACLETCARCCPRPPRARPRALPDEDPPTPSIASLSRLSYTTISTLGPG
Source text: Procedures for (radio)metal labeling of the DOTA–minigastrin conjugates with ^177Lu^3+ and ^natLu^3+, cell culturing of A431-CCK2R cells, cell internalization (including blocking experiments with excess minigastrin (H-LE5AYGWMDF-NH2)), competition binding assays (IC50), stability measurements in human blood plasma, and determinations of logDpH 7.4 have been reported previously for the in vitro evaluation of TZMGs and were applied to NMGs without alteration.
Figure 2 (A) Total internalization of ^177Lu-labeled conjugates (2 nM, 5 kBq) in […] cells over 4 h (n = 3–4 in triplicate). […] Data points show mean value ± standard deviation.

IC50 (CCK2R): 2 nM
Structure (SMILES): CCCC[C@H](NC(=O)[C@H](Cc1c[nH]c2ccccc12)NC(=O)Cn1cc([C@H](Cc2ccc(O)cc2)NC(=O)[C@H](C)n2cc([C@@H](CCC(=O)O)NC(=O)[C@@H](CCC(=O)O)NC(=O)[C@@H](CCC(=O)O)NC(=O)[C@@H](CCC(=O)O)NC(=O)[C@@H](CCC(=O)O)NC(=O)[C@@H](CCC(=O)O)NC(=O)CN3CCN(CC(=O)O)CCN(CC(=O)O)CCN(CC(=O)O)CC3)nn2)nn1)C(=O)N[C@@H](CC(=O)O)C(=O)N[C@@H](Cc1ccccc1)C(N)=O [NMG 3, DOTA-(DGlu)6 -Ψ[Tz]-Ala-Tyr-Ψ[Tz]-Gly-Trp-Nle-Asp-Phe-NH2] ({DOTA}-[dE][dE][dE][dE][dE][X1][X2]W[Nle]DF-NH2)
Internalization 4 h Total (%) (A431-CCK2R cells): 76.5 ± 2.8%
